We go through 2 compounds from paper PMC6337126, “Thiophene Derivatives as Anticancer Agents and Their Delivery to Tumor Cells Using Albumin Nanoparticles” (Molecules, 2019).

Values after ≈ are worked out from the molar mass of the structure shown. Values joined by “and” are separate entries in the source; they are usually repeats but may differ in a detail not shown here. Identical values can stand only once. Like-named read-outs stand apart in the source and are kept apart here. Bounds are passed on as bounds.

Data set [1] relates to HepG2. The experiment in a line: Cytotoxicity of TP 5-NPs in vitro (MTT). It is filed as cell-based. As for the experimental part: (§1) The cytotoxicity of TP 5-NPs in two cell lines in vitro was assessed. Briefly, cells with a density of 8 × 10^4 cells per wells were placed and cultured in 96-well plates. After incubated 24 h at 37 °C, 100 μL of medium containing different concentrations of TP 5-NPs or TP 5 (10.0, 20.0, 30.0, 40.0 and 50.0 μg/mL) was added to each well and cultured another 24, 48 or 72 h at 37 °C (wells containing the normal medium without formulation were regarded as controls). After that, 10.0 μL of MTT (5.0 mg/mL) was added into each well and incubated for 4.0 h. Finally, the medium was removed and 100.0 μL of DMSO was added. OD values were tested by microplate reader at 490 nm when the formazan precipitate was completely dissolved.

The subject of data set [2] is SMMC-7721. As to the kind of experiment: Cytotoxicity of TP 5-NPs in vitro (MTT). Format: cell-based. As for the experimental part:
as §1

The subject of data set [3] is HepG2. The experiment in a line: MTT screening assay of TPs. It is filed as cell-based. As for the experimental part: (§2) HepG2 and SMMC-7721 cell lines were cultured and grown in complete DMEM containing 10% FBS and 1% streptomycin and penicillin in 5% CO2 at 37 °C. TPs were fabricated using the method as described previously. The cytotoxicity of TPs in HepG2 and SMMC-7721 cell in vitro was evaluated by MTT assay. Firstly, cells with a density of 8 × 10^4 cells per wells were placed and cultured in 96-well plates and incubated 24 h at 37 °C. Then, 100 μL of TPs DMEM solution (30 μg/mL) was added into each well. After incubated 24 h, 10 μL of MTT solution (5.0 mg/mL) was added and incubated 4 h. Finally, the medium was removed, 100 μL of DMSO was added and OD values were tested using microplate reader (Synergy4, multi-mode microplate reader, BioTek, Winooski, VT, USA) at 490 nm when the formazan precipitate was completely dissolved. It is worth noting that wells containing normal medium without TPs were regarded as controls. In addition, wells which add the medium with paclitaxel were regarded as a positive control.
For orientation: Formazan colour is commonly taken as a measure of viable cells.

Data set [4] deals with SMMC-7721. As to the kind of experiment: MTT screening assay of TPs. It is filed as cell-based. As for the experimental part:
as §2

Data set [5] is described as follows: Solubility of TP 5 in solvents by HPLC. Format: physicochemical. As for the experimental part: (§3) In order to investigate the solubility and stability of TP 5, a certain amount of TP 5 was dissolved in several solvents (deionized water, PBS buffered solution pH 7.4, ethanol, ethyl acetate, and dichloromethane) and make it saturate. The solubility was measured by HPLC. In addition, for the stability of TP 5, 200.0 μg/mL of TP 5 was placed in different temperature (25.0, 40.0 and 60.0) and the concentration was detected and compared with practical concentration.

For data set [6], the system named is HepG2. As to the kind of experiment: ROS assay (DCFH-DA). It is filed as cell-based. The note with it: HepG2, 30.0 μg/mL, 12 h. As for the experimental part:
(§4) The experimental procedure was similar to the part 4.2.8. Similarly, HepG2 and SMMC-7721 cell were seeded in a 12-well plate and incubated for 24 h. 30.0 μg/mL of TP 5-NPs or TP 5 was added and cultured for another 12 h. After that, 10 μM 2′, 7′-dichlorodihydrofluorescein diacetate (DCFH-DA, Sigma-Aldrich, Saint Louis, MO, USA) was added and incubated for 10.0 min in the dark. Inversed fluorescent microscope was applied to observe fluorescence images.

Data set [7] relates to SMMC-7721. As to the kind of experiment: ROS assay (DCFH-DA). The note with it: SMMC-7721, 30.0 μg/mL, 12 h. It is filed as cell-based. As for the experimental part:
as §4

A short description of data set [8]: In vitro drug release by dialysis method. It is filed as physicochemical. The note with it: over 120 h, PBS containing 20.0% ethanol, 37 °C. As to the method:
The detailed process was as follows: first, TP 5 and TP 5-NPs were all dissolved or dispersed in 1.0 mL PBS (pH 7.4), respectively. Then, they were placed in a dialysis bag (the molecule weight cutoff was 12.0 kD). After that, they were placed in 50.0 mL release medium PBS containing 20.0% v/v ethanol and maintained at 37 °C with continuous stirring at 150 rpm. Sink conditions were maintained. At predetermined time intervals, 1.0 mL release medium was withdrawn and replaced with 1.0 mL 37 °C fresh release medium. Finally, the released capacity of TP 5 was detected by HPLC.

A short description of data set [9]: Stability of TP 5 at different temperatures by HPLC. Format: physicochemical. The note with it: for Detected Concentration: calculated concentration 200.0 μg/mL, single replicates. As for the experimental part:
as §3

Data set [10] has as its system HepG2. The experiment in a line: Mitochondrial transmembrane potential assay (JC-1). It is filed as cell-based. The note with it: HepG2, 30.0 μg/mL, 12 h. As to the method: (§5) In general, cell apoptosis is often accompanied by the transformation of mitochondrial transmembrane potential (ΔΨm). […] In order to verify whether TP 5-NPs can induce cancer cell apoptosis, ΔΨm was measured. Firstly, HepG2 and SMMC-7721 cell with a density of 2 × 10^5 cells per wells in 1.0 mL of medium all were seeded in a 12-well plate and incubated for 24 h. After that, 30.0 μg/mL of TP 5-NPs or TP 5 was added and cultured for another 12 h, in which wells containing normal medium without drugs were regarded as controls. Cells were washed using PBS for three times, incubated for 10 min in 10.0 μg/mL of JC-1 dye in the dark. The level of mitochondrial depolarization was observed by inverted fluorescent microscope and quantitatively analyzed by imaging software Image J [26].

The test system of data set [11] is SMMC-7721. As to the kind of experiment: Mitochondrial transmembrane potential assay (JC-1). Format: cell-based. The note with it: SMMC-7721, 30.0 μg/mL, 12 h. As for the experimental part:
as §5

A word on the solubility: it is the dissolved amount per volume that the medium holds. As for `Cc1cc2c(s1)C1=NC(=O)OC1(c1ccc(Cl)c(Cl)c1)CC2` (centres unmarked) [TP 5], the cytotoxicity result with HepG2 [1] (HepG2, 10.0-50.0 μg/mL, 24, 48 and 72 h) is “dose and time-dependent cytotoxicity”; with SMMC-7721 [2] (SMMC-7721, 10.0-50.0 μg/mL, 24, 48 and 72 h), “dose and time-dependent cytotoxicity”. Besides, the “concentration above which cells were completely killed” value with HepG2 [1] (HepG2, MTT, 24, 48 and 72 h) is “exceeds 40.0 μg/mL”; in the data set with SMMC-7721 [2] (SMMC-7721, MTT, 24, 48 and 72 h), “exceeds 40.0 μg/mL”. Further, the “antitumor activity compared with other TPs and paclitaxel” value in the data set on HepG2 [3] (HepG2, 30.0 μg/mL, 24 h) was “higher activity than other TPs including paclitaxel”; in the data set with SMMC-7721 [4] (SMMC-7721, 30.0 μg/mL, 24 h) it was “higher activity than other TPs including paclitaxel”. Also, the solubility in [5] (PBS containing 20.0% v/v ethanol, PBS pH 7.4 containing 20.0% v/v ethanol, read-out: Solubility in release (acceptor) medium) is 88.2 µg/mL (≈ 250 µM); in data set [5] (aqueous buffer, thermodynamic from solid, PBS buffered solution (pH 7.4), 25 °C, read-out: Solubility), 27.6 µg/mL (≈ 78.5 µM); in data set [5] (deionized water, 25 °C, water, thermodynamic from solid, read-out: Solubility), 26.4 µg/mL (≈ 74.8 µM); in [5] (dichloromethane, 25 °C, organic solvent or mixture, thermodynamic from solid, read-out: Solubility), over 13000 µg/mL; in data set [5] (ethanol, 25 °C, organic solvent or mixture, thermodynamic from solid, read-out: Solubility), 2480 µg/mL (≈ 7040 µM); in [5] (ethyl acetate, 25 °C, organic solvent or mixture, thermodynamic from solid, read-out: Solubility) it was over 6800 µg/mL. Further, the “levels of ROS” value in the data set on HepG2 [6] and in the data set with SMMC-7721 [7] was “higher than those of control cells” each time. Moreover, the drug released in [8] is recorded as ~ 20%. In addition, the “Detected Concentration” value is 201.18 µg/mL and 200.53 µg/mL and 199.88 µg/mL in [9] (25.0 °C); 202.66 µg/mL and 200.05 µg/mL and 202.01 µg/mL in [9] (40.0 °C); 202.28 µg/mL and 202.93 µg/mL and 201.19 µg/mL in [9] (60.0 °C). The “thermal stability of structure” value in data set [9] (temperature increased to 60 °C, HPLC) was “stable”. For the same compound, the “JC-1 polymer/monomer (red/green) fluorescence ratio” value in the data set on HepG2 [10] and in the data set on SMMC-7721 [11] was “lower than those of controls” in each case.
As a reminder, the IC50 is the concentration that inhibits the measured activity by half. Consider `CC(=O)O[C@H]1C(=O)[C@@]2(C)[C@H]([C@H](OC(=O)c3ccccc3)[C@]3(O)C[C@H](OC(=O)[C@H](O)[C@@H](NC(=O)c4ccccc4)c4ccccc4)C(C)=C1C3(C)C)[C@]1(OC(C)=O)CO[C@@H]1C[C@@H]2O` [paclitaxel, reference compound], for which the IC50 in the data set with HepG2 [3] (Homo sapiens, HepG2, 24 h) was determined as 35.9 µg/mL; in the data set with SMMC-7721 [4] (Homo sapiens, SMMC-7721, 24 h) it was 35.3 µg/mL.
